Test results reported in PubChem BioAssay AID1963443 (Molecular Pharmacology Branch, DTP, NCI, 2024).
Where “and” joins values, the source holds several entries; their conditions need not be identical. Equal entries are not always repeated.

Tested on: MDA-MB-231 complex spheroids, growth inhibition
Assay: Anticancer human tumor MDA-MB-231 cell line growth inhibition [Asc];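 further: spheroids exposed to compounds for 7 days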
Conditions: for viability, T/C: stronger effect = lower value
Protocol: Multicellular complex tumor spheroid response to apoptosis pathway targeting inhibitors Alrizomadlin, Pelcitoclax, and Dasminapant in combination with a variety of drugs and investigational agents in selected tumor cell lines
The MDM2 inhibitor alrizomadlin, the Bcl-2/Bcl-xL inhibitor pelcitoclax, and the IAPs inhibitor dasminapant were evaluated both individually and in combination with standard of care and investigational anticancer small molecules within a complex spheroid model of solid tumors. . Complex spheroids include a stromal component modeled by human endothelial cells (HUVEC) and fibroblasts modeled by human mesenchymal stem cells (MSCs). The concentration ranges selected for each drug and investigational agent were based upon clinically achievable concentrations if the clinical Cmax of the agent was known.
Compounds. The drugs and investigational agents: alrizomadlin (APG-115; NSC831270), pelcitoclax (APG-1252; NSC835773), dasminapant (APG-1387;NSC834197), TAK-243 (NSC785004), copanlisib (NSC809693), olaparib (NSC753686), talazoparib (NSC767125), cobimetinib (NSC 768068), eltanexor (KPT-8602, NSC 794443), abemaciclib (NSC 768073), sotorasib (NSC818433), adagrasib (NSC 831453), MRTX-1133 (NSC 836407), Iadademestat (ORY1001, NSC 806812), and RMC-4630 (NSC839698), were obtained from the NCI Developmental Therapeutics Program Chemical Repository. The FDA-approved anticancer drug set is available from the Developmental Therapeutics Program at https://dtp.cancer.gov/organization/dscb/obtaining/available plates.htm. […] The stock solutions were prepared in dimethyl sulfoxide (DMSO, Sigma-Aldrich, St. Louis, MO, cat. D2650) at 800-fold the tested concentration and stored at -70 degrees C prior to their use. All drugs and investigational agents were tested over a range starting from a high concentration at or near the clinical Cmax and decreasing in half-log increments. If the clinical Cmax for an agent had not been determined, the highest concentration tested was 10 microM.
The patient-derived cancer (PDC) cell lines include five colon adenocarcinomas: 186277-243-T-J2-PDC, 616215-338-R-J1-PDC, 439559-082-T-J2-PDC, 463943-066-T-J2-PDC, and 519858-162-T-J1-PDC; three pancreatic carcinomas: 323965-272-R-J2-PDC, 521955-158-R6-J3-PDC, and 521955-158-R2-J5-PDC; two uterine sarcomas: 327498-152-R-J2-PDC and 993429-296-R-J1-PDC; two rhabdomyosarcomas: 755483-174-R-J1-PDC and 772245-204-R-J1-PDC; two soft tissue sarcomas: 126254-015-R-J1-PDC and 494315-158-R-J1-PDC; two malignant fibrous histiocytomas: 317291-083-R-J1-PDC and 596521-263-R-J1-PDC; two breast carcinomas: 171881-019-R-J1-PDC and 885512-296-R-J2-PDC; and one ovarian carcinoma: 6556581-035-R-J-PDC were obtained from the NCI PDMR, (https://pdmr.cancer.gov). The established cell lines HSSY-2 synovial sarcoma (RRID:CVCL 8719), SYO-1 synovial sarcoma (RRID:CVCL_7146), MPNST malignant peripheral neural sheath tumor were obtained from the Sloan Kettering Institute. The following established cell lines were purchased from the American Type Culture Collection (ATCC, Manassas, VA), Sor the received from the NCI repository:, PANC-1 pancreatic carcinoma (CRL-1469, RRID:CVCL_0480), OVCAR-5 ovarian carcinoma (RRID:CVCL_1628), OVCAR-8 ovarian carcinoma (RRID:CVCL_1629), , MCF-7 breast carcinoma (CRL-12584, RRID:CVCL_0031), MDA-MB-231 breast carcinoma (CRL-12532, RRID:CVCL_0062), NCI-H1876 small cell lung carcinoma (CRL-5902, RRID:CVCL_1503), NCI-H510A small cell lung carcinoma (HTB-184, RRID:CVCL_1565), NCI-H1417 (CRL-5869, RRID:CVCL_1469), and NCI-H196 small cell lung carcinoma (CRL-5823, RRID:CVCL_1509). Dr. Peter Houghton (Greehey Children's Cancer Research Institute, University of Texas Health Science Center, San Antonio, TX) provided Rh-18 rhabdomyosarcoma (RRID:CVCL_1659). Pooled donor human umbilical vein endothelial cells (HUVEC, Lonza, cat. CC-2519) and human mesenchymal stem cells (hMSC, Lonza, cat. PT-2501) were purchased from Lonza (Walkersville, MD).
Cell Culture. […]

[1] = curve of first compound, second compound 0.1 µM
[2] = curve of first compound, second compound 0.316 µM
[3] = curve of first compound, second compound 1 µM
[4] = curve of first compound, second compound 3.16 µM
[5] = curve of first compound, second compound 10 µM
[6] = second compound 0.1 µM, first compound 0.00316 µM
[7] = second compound 0.1 µM, first compound 0.01 µM
[8] = second compound 0.1 µM, first compound 0.0316 µM
[9] = second compound 0.1 µM, first compound 0.1 µM
[10] = second compound 0.316 µM, first compound 0.00316 µM
[11] = second compound 0.316 µM, first compound 0.01 µM
[12] = second compound 0.316 µM, first compound 0.0316 µM
[13] = second compound 0.316 µM, first compound 0.1 µM
[14] = second compound 1 µM, first compound 0.00316 µM
[15] = second compound 1 µM, first compound 0.01 µM
[16] = second compound 1 µM, first compound 0.0316 µM
[17] = second compound 1 µM, first compound 0.1 µM
[18] = second compound 3.16 µM, first compound 0.00316 µM
[19] = second compound 3.16 µM, first compound 0.01 µM
[20] = second compound 3.16 µM, first compound 0.0316 µM
[21] = second compound 3.16 µM, first compound 0.1 µM
[22] = second compound 10 µM, first compound 0.00316 µM
[23] = second compound 10 µM, first compound 0.01 µM
[24] = second compound 10 µM, first compound 0.0316 µM
[25] = second compound 10 µM, first compound 0.1 µM

Row | IC50 [1] [µM] | IC50 [2] [µM] | IC50 [3] [µM] | IC50 [4] [µM] | IC50 [5] [µM] | SMILES | viability, T/C [6] [%] | viability, T/C [7] [%] | viability, T/C [8] [%] | viability, T/C [9] [%] | viability, T/C [10] [%] | viability, T/C [11] [%] | viability, T/C [12] [%] | viability, T/C [13] [%] | viability, T/C [14] [%] | viability, T/C [15] [%] | viability, T/C [16] [%] | viability, T/C [17] [%] | viability, T/C [18] [%] | viability, T/C [19] [%] | viability, T/C [20] [%] | also measured
1 | > 0.1 | > 0.1 | > 0.1 | > 0.1 | > 0.1 | NC1CCC(NC2CC2c2ccccc2)CC1 (configuration not stated) + Cc1c(S(C)(=O)=O)c(-c2cc(F)cc(N3CCN(c4ccc(NS(=O)(=O)c5ccc(NC(CCN6CCC(C(=O)OCCCP(=O)(O)O)CC6)CSc6ccccc6)c(S(=O)(=O)C(F)(F)F)c5)cc4)CC3)c2)c(-c2ccc(Cl)cc2)n1C(C)C | 104 | 99.1 | 92.5 | 103 | 106 | 104 | 105 | 103 | 103 | 108 | 105 | 102 | 99.5 | 90.8 | 93.2 | viability, T/C (second compound 0.1 µM, first compound 0.000316 µM): 102%; viability, T/C (second compound 0.1 µM, first compound 0.001 µM): 98.7%; viability, T/C (second compound 0.316 µM, first compound 0.000316 µM): 104%; viability, T/C (second compound 0.316 µM, first compound 0.001 µM): 103%; viability, T/C (second compound 1 µM, first compound 0.000316 µM): 96.1%; viability, T/C (second compound 1 µM, first compound 0.001 µM): 106%; viability, T/C (second compound 3.16 µM, first compound 0.000316 µM): 93.3%; viability, T/C (second compound 3.16 µM, first compound 0.001 µM): 94.2%; viability, T/C [21]: 94.7%; viability, T/C (second compound 10 µM, first compound 0.000316 µM): 101%; viability, T/C (second compound 10 µM, first compound 0.001 µM): 100%; viability, T/C [22]: 101%; viability, T/C [23]: 101%; viability, T/C [24]: 96.6%; viability, T/C [25]: 94.1%
2 | 0.0763 | 0.103 | 0.0713 | 0.117 | 0.116 | O=C(c1ccc(F)c(F)c1Nc1ccc(I)cc1F)N1CC(O)([C@@H]2CCCCN2)C1 + Cc1c(S(C)(=O)=O)c(-c2cc(F)cc(N3CCN(c4ccc(NS(=O)(=O)c5ccc(NC(CCN6CCC(C(=O)OCCCP(=O)(O)O)CC6)CSc6ccccc6)c(S(=O)(=O)C(F)(F)F)c5)cc4)CC3)c2)c(-c2ccc(Cl)cc2)n1C(C)C | 87.8 | 68.8 | 60.6 | 51.9 | 86.3 | 61.9 | 64.7 | 54.8 | 96.5 | 59.5 | 66.7 | 60.3 | 81.9 | 56.5 | 60.4 | viability, T/C (second compound 0.1 µM, first compound 0.316 µM): 24.9%; viability, T/C (second compound 0.1 µM, first compound 1 µM): 1.38%; viability, T/C (second compound 0.316 µM, first compound 0.316 µM): 14.6%; viability, T/C (second compound 0.316 µM, first compound 1 µM): 0.96%; viability, T/C (second compound 1 µM, first compound 0.316 µM): 10.8%; viability, T/C (second compound 1 µM, first compound 1 µM): 1.16%; viability, T/C [21]: 57.2%; viability, T/C (second compound 3.16 µM, first compound 0.316 µM): 5.78%; viability, T/C (second compound 3.16 µM, first compound 1 µM): 0.65%; viability, T/C [22]: 93.9%; viability, T/C [23]: 93.1%; viability, T/C [24]: 89%; viability, T/C [25]: 57.1%; viability, T/C (second compound 10 µM, first compound 0.316 µM): 0.97%; viability, T/C (second compound 10 µM, first compound 1 µM): 0.83%
3 |  |  |  |  |  | C=CC(=O)N1CCN(c2nc(=O)n(-c3c(C)ccnc3C(C)C)c3nc(-c4c(O)cccc4F)c(F)cc23)C(C)C1 (configuration not stated) |  |  |  |  |  |  |  |  |  |  |  |  |  |  |  | viability, T/C (compound 0.0316 µM): 101% and 102% and 103%; viability, T/C (compound 0.1 µM): 104% and 105% and 103%; viability, T/C (compound 0.316 µM): 106% (2×) and 107%; viability, T/C (compound 1 µM): 107% and 109% and 111%; viability, T/C (compound 3.16 µM): 119% and 117% and 113%; viability, T/C (compound 10 µM): 119% and 121% and 110%; IC50 (curve of compound): > 10 µM
